These results are taken from patent US20230115515A1, “PYRAZOLYLPROPANAMIDE COMPOUNDS AND USES THEREOF FOR TREATMENT OF PROSTATE CANCER” (priority 2020, published 2023).

Series [1] can be described thus: Metabolic stability in mouse liver microsomes (phase I and II).
Series [2] deals with ventral prostate (VP) and seminal vesicle (SV) weights. Briefly: Hershberger assay in intact rats. It is filed as in vivo, rat. On the procedure: FIGS. 7A and 7B depict that SARDs and pan-antagonists inhibited androgen-dependent organs in rats. FIGS. 7 A and 7B show the reduction of VP and SV weights following the treatment of intact rats with 20 mg/kg (mpk) po daily of antagonist or vehicle for 14 days (n=5/group). Rats were sacrificed at the end of the treatment period and weights of prostate and SVs were measured and normalized to body weight.
Male rats (6-8 weeks old) were randomized into groups based on body weight. Animals were sacrificed, prostate and seminal vesicles were weighed, and organ weights were normalized to body weight. Male rats (n=5/group) were left intact, for […]. […] Organ weights were normalized to body weight. […] The goal of the experiments was to find compounds with in vivo antiandrogen efficacies greater than 10.
Hershberger Assays. […] Rat ventral prostate (VP), seminal vesicle (SV), and levator ani (LA) muscle are AR-dependent tissues whose size (reflected by their weight) responds rapidly to castration.
Traditionally, agonists are dosed to prevent (whereby agonist is given upon castration) or restore (agonist is given after tissue atrophies) anabolic tissue weights [LA or other skeletal muscles and bone (the latter takes months not days to atrophy and restore)] to intact levels or greater, without increasing androgenic tissue (SV or VP) weights back to intact levels. […]

The nature of series [3]: In vivo lethality observation. As to conditions: 5 mg/kg.
For series [4], the target named is recombinant LBD of wildtype AR (wtAR). The conditions noted are these: read-out: Binding Ki; cited from earlier work.
Series [5] relates to FKBP5 gene expression in LNCaP cells. Briefly: AR-target gene (FKBP5) expression in LNCaP cells, real-time PCR. It is filed as cell-based, human. As to conditions: R1881-induced, FIG. 3.
Series [6] has as its system AR and AR-V7-positive 22RV1 xenograft. The series can be described thus: 22RV1 xenograft in NSG mice. It is filed as in vivo, mouse.
In a further series the test system is UT-1355 TNBC PDX. The series can be described thus: TNBC patient-derived xenograft UT-1355 in NSG mice. Format: in vivo, mouse. The conditions noted are these: for tumor volume at end: in mm³ (unit assumed).
Series [7] has as its system Enzalutamide resistant VCaP (MDVR VCaP) xenograft. The conditions noted are these: cited from earlier work.
The target of the next series is CMV-hAR (Homo sapiens, UniProt P10275). Briefly: cell-based. As to conditions: read-out: Wt. IC50.
CMV-hAR, sequence (P10275 whole entry, the tested form may be a part): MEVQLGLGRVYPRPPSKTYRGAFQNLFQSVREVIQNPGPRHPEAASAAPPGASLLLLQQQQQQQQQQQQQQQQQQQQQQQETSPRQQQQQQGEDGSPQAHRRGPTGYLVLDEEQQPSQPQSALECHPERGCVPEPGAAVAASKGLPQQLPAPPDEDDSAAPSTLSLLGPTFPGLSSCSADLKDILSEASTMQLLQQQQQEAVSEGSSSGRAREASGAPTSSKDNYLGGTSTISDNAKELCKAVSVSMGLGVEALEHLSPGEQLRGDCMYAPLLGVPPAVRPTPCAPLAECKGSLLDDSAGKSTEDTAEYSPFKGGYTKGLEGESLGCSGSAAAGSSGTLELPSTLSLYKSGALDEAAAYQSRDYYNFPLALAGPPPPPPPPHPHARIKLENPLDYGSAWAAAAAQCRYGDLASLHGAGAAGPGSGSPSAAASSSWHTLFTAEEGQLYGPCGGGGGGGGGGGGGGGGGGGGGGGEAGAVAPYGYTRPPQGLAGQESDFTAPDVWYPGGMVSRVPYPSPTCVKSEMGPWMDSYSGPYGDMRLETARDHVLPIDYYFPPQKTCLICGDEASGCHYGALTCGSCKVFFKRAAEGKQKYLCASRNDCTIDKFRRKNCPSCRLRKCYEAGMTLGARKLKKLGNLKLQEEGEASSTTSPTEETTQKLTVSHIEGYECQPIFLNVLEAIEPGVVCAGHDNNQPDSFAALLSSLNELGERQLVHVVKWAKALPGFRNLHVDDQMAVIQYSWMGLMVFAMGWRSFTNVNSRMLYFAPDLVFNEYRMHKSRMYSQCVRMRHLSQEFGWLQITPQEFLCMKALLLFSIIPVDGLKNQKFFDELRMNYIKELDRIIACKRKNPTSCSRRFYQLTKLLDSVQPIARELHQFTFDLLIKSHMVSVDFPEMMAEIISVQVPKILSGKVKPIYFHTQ
The next series deals with T1, hAR-LBD (633-919) (Homo sapiens, UniProt P10275).
T1 sequence (P10275 633-919): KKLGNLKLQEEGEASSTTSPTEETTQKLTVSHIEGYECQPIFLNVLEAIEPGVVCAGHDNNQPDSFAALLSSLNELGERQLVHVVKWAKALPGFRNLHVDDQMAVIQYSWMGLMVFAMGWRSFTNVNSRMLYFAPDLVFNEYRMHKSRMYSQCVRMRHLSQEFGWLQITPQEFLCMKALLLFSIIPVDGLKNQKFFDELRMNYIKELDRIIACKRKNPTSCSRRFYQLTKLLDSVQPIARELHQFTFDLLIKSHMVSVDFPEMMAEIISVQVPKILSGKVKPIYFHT
The series can be described thus: Ligand binding assay (Ki), [3H]mibolerone competition (Table A).

Series [8] is described as follows: Metabolic stability in rat liver microsomes (phase I and II). It is filed as in vitro ADME. As to conditions: for half-life at 1 µM: read-out: RLM T1/2.
The nature of series [9]: Metabolic stability in human liver microsomes (phase I and II). Format: in vitro ADME.
A short description of another series: in vitro. The conditions noted are these: mouse, microsomes, pH 7.5.
Series [10] concerns Enzalutamide resistant VCaP (MDVR VCaP) xenograft. Briefly: Enz-R (MDVR) VCaP xenograft in intact SRG rats. It is filed as in vivo, rat. The conditions noted are these: 10 mg/kg po daily, FIG. 8B.
The mark [11] stands for this setting: pH 7.5, MLM T1/2 (min), co-factors for phases I and II.
Setting [12] is: rat, microsomes, pH 7.5, cofactors for phases I and II.

Where only a bound is given, the exact number is not on record here.

In series [1] (pH 7.5), `C[C@@](O)(Cn1cc(F)cn1)C(=O)Nc1ccc(C#N)c(C(F)(F)F)c1` [Compound 29a, (R)—N-(4-Cyano-3-(trifluoromethyl)phenyl)-3-(4-fluoro-1H-pyrazol-1-yl)-2-hydroxy-2-methylpropanamide] gave a half-life at 1 µM of at least 0.807 h.
In the case of `C[C@](O)(Cn1cc(C#N)cn1)C(=O)Nc1ccc(C#N)c(C(F)(F)F)c1` [Compound 16i, (S)-3-(4-Cyano-1H-pyrazol-1-yl)-N-(4-cyano-3-(trifluoromethyl)phenyl)-2-hydroxy-2-methylpropanamide], the “toxicity in 20 mg/kg fixed dose screening Hershberger” value in series [2] (20 mg/kg, rats) was “toxic so no data”. Besides, the lethality in vivo result in series [3] was “lethality at 5 mg/kg”. This compound also returned a half-life at 1 µM in [1] (setting [11]) of at least 0.807 h.
As for `CC(O)c1cc(C(=O)N[C@@H](C)Cn2ccc(-c3ccc(C#N)c(Cl)c3)n2)[nH]n1` (some centres unmarked) [6 (darolutamide), darolutamide], the inhibition constant Ki in [4] is 0.011 µM.
Turning to `CNC(=O)c1ccc(N2C(=S)N(c3ccc(C#N)c(C(F)(F)F)c3)C(=O)C2(C)C)cc1F` [4 (enzalutamide), enzalutamide, reference compound], the “inhibition of FKBP5 expression” value in series [5] is “also inhibited expression of the FKBP5 but at a slightly lower potency”. The “time to euthanasia criteria (Kaplan-Meier)” value is “reached euthanasia criteria earlier than the animals treated with 21c” in series [6] (length>2 cm or volume>2000 mm^3, FIG. 12) and “reached euthanasia criteria earlier than the animals treated with 21c” with UT-1355 TNBC PDX (enzalutamide 60 mpk, FIG. 15). Further, the “effect on 22RV1 xenograft growth” value in series [6] (oral, NSG mice) was “failed to inhibit the growth”. Further, in [7] (not shown, previously published), the “effect in MDVR VCaP xenograft” value is given as “failed to durably achieve any effect”.
On to `C[C@](O)(Cn1cc(-c2ccc(C#N)cc2)nn1)C(=O)Nc1ccc(C#N)c(C(F)(F)F)c1` [Compound 29o, (S)—N-(4-Cyano-3-(Trifluoromethyl)Phenyl)-3-(4-(4-Cyanophenyl)-1H-1,2,3-Triazol-1-Yl)-2-Hydroxy-2-Methylpropanamide], for which, on CMV-hAR, the IC50 was 0.062 µM. The compound further had a Ki on hAR-LBD (633-919) of 1.51 µM.
In the case of `C[C@](O)(Cn1cc(C#N)cn1)C(=O)Nc1ccc(C#N)cc1Cl` [Compound 29j, (S)—N-(2-chloro-4-cyanophenyl)-3-(4-cyano-1H-pyrazol-1-yl)-2-hydroxy-2-methylpropanamide], on CMV-hAR, the IC50 is 1.12 µM.
`C[C@](O)(Cn1cc(F)cn1)C(=O)Nc1cnc(C#N)c(C(F)(F)F)c1` [Compound 21a]: the “RLM CLint” value in series [8] (rat, microsomes, 1 µM, pH 7.5) came out at 0 µL/min/mg. In [9] (1 µM, pH 7.5), the “HLM CLint” value turned out to be 0 µL/min/mg. In “in vitro”, the half-life at 1 µM was at least 0.807 h.
With `C[C@](O)(Cn1ccc(C(F)(F)F)n1)C(=O)Nc1ccc(C#N)c(C(F)(F)F)c1` [Compound 16h, (S)—N-(4-Cyano-3-(trifluoromethyl)phenyl)-2-hydroxy-2-methyl-3-(3-(trifluoromethyl)-1H-pyrazol-1-yl)propanamide], the half-life at 1 µM in series [1] (setting [11]) was at least 0.807 h.
In the case of `C[C@](O)(Cn1cc(C(F)(F)F)cn1)C(=O)Nc1ccc(C#N)c(C(F)(F)F)c1` [Compound 16g, (S)—N-(4-Cyano-3-(trifluoromethyl)phenyl)-2-hydroxy-2-methyl-3-(4-(trifluoromethyl)-1H-pyrazol-1-yl)propanamide], the half-life at 1 µM in series [8] (setting [12]) is above 2 h; in [1] (setting [11]), at least 0.807 h.
For `Cc1c(NC(=O)[C@@](C)(O)Cn2cc(C#N)cn2)ccc(C#N)c1Cl` [Compound 29k, (S)—N-(3-Chloro-4-Cyano-2-Methylphenyl)-3-(4-Cyano-1H-Pyrazol-1-Yl)-2-Hydroxy-2-Methylpropanamide], the IC50 on CMV-hAR is 1.7 µM.
Take `C[C@](O)(Cn1ccc(F)n1)C(=O)Nc1ccc(C#N)c(C(F)(F)F)c1` [Compound 16b, (S)—N-(4-Cyano-3-(trifluoromethyl)phenyl)-3-(3-fluoro-1H-pyrazol-1-yl)-2-hydroxy-2-methylpropanamide]: the half-life at 1 µM in series [1] (setting [11]) was at least 0.807 h.
`C[C@](O)(Cn1cc(F)cn1)C(=O)Nc1ccc(C(N)=O)nc1` [Compound 21g, (S)-5-(3-(4-Fluoro-1H-pyrazol-1-yl)-2-hydroxy-2-methylpropanamido)picolinamide]: the half-life at 1 µM in [1] (pH 7.5) is above 6 h.
Turning to `C[C@](O)(Cn1cc(Br)c(F)n1)C(=O)Nc1ccc(C#N)c(C(F)(F)F)c1` [Compound 26a, (S)-3-(4-Bromo-3-fluoro-1H-pyrazol-1-yl)-N-(4-cyano-3-(trifluoromethyl)phenyl)-2-hydroxy-2-methylpropanamide], the half-life at 1 µM was above 2 h in [8] (setting [12]); above 2 h in [9] (pH 7.5, cofactors for phases I and II, read-out: HLM T1/2). In series [2] (20 mg/kg po daily, intact rats, FIG. 7B), this compound returned an SV weight reduction of around 50%. Moreover, the “tumor weights at the end of the study” value in series [10] is reported as “significant inhibition”.
On to `C[C@](O)(Cn1cc(F)cn1)C(=O)Nc1ccc(C#N)cc1Cl` [Compound 29i, (S)—N-(2-Chloro-4-Cyanophenyl)-3-(4-Fluoro-1H-Pyrazol-l-Yl)-2-Hydroxy-2-Methylpropanamide], for which the half-maximal inhibitory concentration (IC50) on CMV-hAR came to 1.23 µM.
Turning to `C[C@](O)(Cn1cc(C#N)cn1)C(=O)Nc1cnc(C#N)c(C(F)(F)F)c1` [Compound 21c, (S)-3-(4-Cyano-1H-pyrazol-1-yl)-N-(6-cyano-5-(trifluoromethyl)pyridin-3-yl)-2-hydroxy-2-methylpropanamide], in [6] (oral, NSG mice), the “tumor volume at end” value stood at 1205 mm^3 and the “tumor volume at start” value came out at 301 mm^3. Further, the “tumor volume inhibition (maximum)” value in series [6] (oral, NSG mice, FIGS. 11A-11B) turned out to be 63%. In addition, in the series with UT-1355 TNBC PDX (60 mpk 21c, 10 60 mpk b.i.d), the “growth inhibition of UT-1355 PDX” value is on record as “significantly inhibited the growth”, the tumor volume at start came out at 227 mm³ and the “tumor volume at end” value is 331.
As for `C[C@](O)(Cn1cc(Cl)cn1)C(=O)Nc1ccc(C#N)c(C(F)(F)F)c1` [Compound 16c, (S)-3-(4-Chloro-1H-pyrazol-1-yl)-N-(4-cyano-3-(trifluoromethyl)phenyl)-2-hydroxy-2-methylpropanamide], the “RLM T1/2” value in [8] (cofactors for phases I and II) is above 2 h. In addition, the half-life at 1 µM in [8] (setting [12]) was above 2 h.
As for `C[C@](O)(Cn1cc(F)cn1)C(=O)Nc1ccc(C#N)c(C(F)(F)F)c1` [Compound 10, (S)—N-(4-Cyano-3-(trifluoromethyl)phenyl)-3-(4-fluoro-1H-pyrazol-1-yl)-2-hydroxy-2-methylpropanamide], in the series on UT-1355 TNBC PDX (60 mpk 21c, 10 60 mpk b.i.d), the tumor volume at start worked out at 427 mm³ and the “tumor volume at end” value was found to be 1354. For the same compound, the “dose required to achieve similar results (TGI)” value in series [7] (previously published for 10) was 20 to 30 mg/kg.
